Some results are limits rather than exact numbers.

In this test the target is hCereblon(M1-L442)_hDDB1(M1-H1140) (Homo sapiens (Human), UniProt Q96SW2). Briefly: Fluorescence direct binding (tryptophan fluorescence titration). The following applies: 20° C., excitation 280 nm, emission 340 nm, 50 mM Hepes 7.4 200 mM NaCl; read-out: Fluorescence h-Cereblon_DDB1 Mean Kd_EQ.
hCereblon(M1-L442)_hDDB1(M1-H1140), sequence (Q96SW2 whole entry, looked up): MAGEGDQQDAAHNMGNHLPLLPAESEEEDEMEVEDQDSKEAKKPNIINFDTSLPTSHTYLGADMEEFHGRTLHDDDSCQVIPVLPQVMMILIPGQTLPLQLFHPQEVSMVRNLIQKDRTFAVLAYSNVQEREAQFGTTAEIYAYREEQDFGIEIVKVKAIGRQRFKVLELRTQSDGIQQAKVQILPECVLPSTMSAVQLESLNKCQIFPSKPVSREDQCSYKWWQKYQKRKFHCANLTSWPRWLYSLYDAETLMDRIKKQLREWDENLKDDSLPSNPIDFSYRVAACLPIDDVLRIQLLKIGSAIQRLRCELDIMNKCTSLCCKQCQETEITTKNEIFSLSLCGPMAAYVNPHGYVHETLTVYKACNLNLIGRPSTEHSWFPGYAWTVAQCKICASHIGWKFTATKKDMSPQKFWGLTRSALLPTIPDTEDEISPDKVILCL
hCereblon(M1-L442)_hDDB1(M1-H1140), sequence (Q16531 whole entry partner, looked up): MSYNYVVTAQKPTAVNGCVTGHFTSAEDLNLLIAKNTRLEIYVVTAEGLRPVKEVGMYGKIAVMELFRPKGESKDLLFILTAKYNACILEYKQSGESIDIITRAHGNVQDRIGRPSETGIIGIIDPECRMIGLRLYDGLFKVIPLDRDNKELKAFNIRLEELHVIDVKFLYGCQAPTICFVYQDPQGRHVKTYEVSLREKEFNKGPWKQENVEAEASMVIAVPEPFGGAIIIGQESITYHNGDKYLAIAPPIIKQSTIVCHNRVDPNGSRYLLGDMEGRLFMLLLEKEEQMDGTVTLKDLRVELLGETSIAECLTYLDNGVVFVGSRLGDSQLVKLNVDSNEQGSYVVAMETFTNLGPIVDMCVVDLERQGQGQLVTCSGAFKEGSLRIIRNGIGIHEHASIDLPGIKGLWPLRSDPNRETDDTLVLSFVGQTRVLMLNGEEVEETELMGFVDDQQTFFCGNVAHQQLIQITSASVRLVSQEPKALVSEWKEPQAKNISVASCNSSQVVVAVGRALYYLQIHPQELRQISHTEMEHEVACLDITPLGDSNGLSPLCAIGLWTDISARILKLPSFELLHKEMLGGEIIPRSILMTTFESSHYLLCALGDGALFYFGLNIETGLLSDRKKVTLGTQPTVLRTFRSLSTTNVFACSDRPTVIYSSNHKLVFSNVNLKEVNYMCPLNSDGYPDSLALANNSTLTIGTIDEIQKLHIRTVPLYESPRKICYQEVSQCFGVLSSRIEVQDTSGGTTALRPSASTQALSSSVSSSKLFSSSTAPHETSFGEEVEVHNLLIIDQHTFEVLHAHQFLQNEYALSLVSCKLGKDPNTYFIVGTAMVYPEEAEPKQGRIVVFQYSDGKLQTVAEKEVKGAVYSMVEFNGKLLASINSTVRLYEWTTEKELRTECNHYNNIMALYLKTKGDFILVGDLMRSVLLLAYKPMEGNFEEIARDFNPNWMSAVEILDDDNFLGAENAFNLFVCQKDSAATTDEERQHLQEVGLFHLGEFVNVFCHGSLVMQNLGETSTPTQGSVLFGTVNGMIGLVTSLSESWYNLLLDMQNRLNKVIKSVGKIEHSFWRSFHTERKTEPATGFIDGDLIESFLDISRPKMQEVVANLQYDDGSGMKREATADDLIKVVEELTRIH
Description: Fluorescence Direct Binding Protocol
Determination of the affinities of compounds to protein containing one or more tryptophan is measurable by monitoring the fluorescence emission in direct mode. The measurements, depending on the protein available amounts, were performed either manually in a cuvette on ISS-PCI photon counting spectrofluorometer or automatically in well plates on a fluorescence plate reader device. Fluorescence titrations were performed at 20° C. in the chosen binding assay buffer by using a defined constant protein concentration against ligand concentration variations. Small aliquots of known ligand concentration solubilized in DMSO were added and the fluorescence, excited at 280 nm, was recorded at 340 nm.
`O=C1CCC2(CCN(c3nc4cc([N+](=O)[O-])ccc4[nH]3)C2)C(=O)N1` (single isomer, unassigned) [Example 33, 2-(5-nitro-1H-benzo[d]imidazol-2-yl)-2,7-diazaspiro[4.5] decane-6,8-dione]: the Kd was less than 1 nM.

As for `O=C1CCC2(CCN(c3nc4cc([N+](=O)[O-])ccc4[nH]3)C2)C(=O)N1` (single isomer, unassigned) [Example 34, 2-(5-nitro-1H-benzo[d]imidazol-2-yl)-2,7-diazaspiro[4.5] decane-6,8-dione], the Kd came out at 5 nM.

In the case of `O=C1CC2(CCN(C(=O)[C@H]3CCCc4ccccc43)CC2)C(=O)N1` (single isomer, unassigned) [Example 77], the Kd amounted to 6 nM.

As for `O=C1CC2(CCN(C(=O)[C@@H]3CCCc4ccccc43)CC2)C(=O)N1` (single isomer, unassigned) [Example 78], the Kd came to 4 nM.

As for `Cc1sc2c(c1C)C(c1ccc(Cl)cc1)=NC(CC(=O)NCCCCCCCC(=O)Nc1cccc(C(=O)N3CCC4(CCC(=O)NC4=O)C3)c1)c1nnc(C)n1-2` (stereo in doubt) [Example 57, 8-(2-((R)-4-(4-chlorophenyl)-2,3,9-trimethyl-6H-thieno[3,2-f] [1,2,4]triazolo [4,3-a] [1,4]diazepin-6-yl)acetamido)-N-(3-(6,8-dioxo-2,7-diazaspiro[4.5]decane-2-carbonyl)phenyl) octanamide], the Kd stood at 106 nM.

Turning to `O=C1CCC2(CCNC2)C(=O)N1` (centres unmarked) [Example 1, 2,7-diazaspiro [4.5]decane-6,8-dione], the Kd is 84 nM.

As for `CN1CC2(CCC(=O)NC2=O)CC1=O` (centres unmarked) [Example 2, 2-methyl-2,7-diazaspiro[4.5] decane-3,6,8-trione], the Kd came to 159 nM.

With `COC(=O)c1ccc(N2CCC3(CCC(=O)NC3=O)C2)nc1` (centres unmarked) [Example 6, methyl 6-(6,8-dioxo-2,7-diazaspiro[4.5]decan-2-yl) nicotinate], the Kd is less than 1 nM.

`O=C1CCC2(CCN(c3nc4cc([N+](=O)[O-])ccc4[nH]3)C2)C(=O)N1` (centres unmarked) [Example 9, 2-(5-nitro-1H-benzo[d]imidazol-2-yl)-2,7-diazaspiro [4.5]decane-6,8-dione]: the Kd is 8 nM.

For `O=C1CCC2(CCN(c3nc4ccccc4s3)C2)C(=O)N1` (centres unmarked) [Example 12, 2-(benzo[d]thiazol-2-yl)-2,7-diazaspiro [4.5]decane-6,8-dione], the Kd worked out at 1 nM.

In the case of `COC(=O)c1cccc2nc(N3CCC4(CCC(=O)NC4=O)C3)[nH]c12` (centres unmarked) [Example 13, methyl 2-(6,8-dioxo-2,7-diazaspiro[4.5]decan-2-yl)-1H-benzo[d]imidazole-7-carboxylate], the Kd turned out to be 96 nM.

On to `O=C1CCC2(CCN(c3ccc4ccccc4n3)C2)C(=O)N1` (centres unmarked) [Example 15, 2-(quinolin-2-yl)-2,7-diazaspiro[4.5] decane-6,8-dione], for which the Kd is 6 nM.

In the case of `Cn1c(N2CCC3(CCC(=O)NC3=O)C2)nc2ccccc21` (centres unmarked) [Example 19, 2-(1-methyl-1H-benzo[d]imidazol-2-yl)-2,7-diazaspiro[4.5] decane-6,8-dione], the Kd was found to be 30 nM.

In the case of `O=C1CCC2(CCN(c3nc4cnccc4s3)C2)C(=O)N1` (centres unmarked) [Example 20, 2-(thiazolo[4,5-c]pyridin-2-yl)-2,7-diazaspiro[4.5] decane-6,8-dione], the Kd turned out to be 6 nM.

With `COC(=O)c1ccc2nc(N3CCC4(CCC(=O)NC4=O)C3)sc2c1` (centres unmarked) [Example 21, methyl 2-(6,8-dioxo-2,7-diazaspiro [4.5]decan-2-yl)benzo[d]thiazole-6-carboxylate], the Kd was 8 nM.

On to `COC(=O)c1csc(N2CCC3(CCC(=O)NC3=O)C2)n1` (centres unmarked) [Example 22, methyl 2-(6,8-dioxo-2,7-diazaspiro[4.5]decan-2-yl)thiazole-4-carboxylate], for which the Kd was found to be 44 nM.

On to `COC(=O)c1cnc(N2CCC3(CCC(=O)NC3=O)C2)s1` (centres unmarked) [Example 23, methyl 2-(6,8-dioxo-2,7-diazaspiro[4.5]decan-2-yl)thiazole-5-carboxylate], for which the Kd was 8 nM.

Regarding `CC(C)(C)OC(=O)c1ccc(N2CCC3(CCC(=O)NC3=O)C2)nc1` (centres unmarked) [Example 24, tert-butyl 6-(6,8-dioxo-2,7-diazaspiro[4.5]decan-2-yl) nicotinate], the Kd is 2 nM.

For the compound `O=C1CCC2(CCN(C(=O)c3cccc4c3CC(=O)N4)C2)C(=O)N1` (centres unmarked) [Example 27, 2-(2-oxoindoline-4-carbonyl)-2,7-diazaspiro[4.5] decane-6,8-dione], the Kd was found to be 47 nM.

`COC(=O)c1ccc(C(=O)N2CCC3(CCC(=O)NC3=O)C2)cc1` (centres unmarked) [Example 28, methyl 4-(6,8-dioxo-2,7-diazaspiro[4.5]decane-2-carbonyl) benzoate]: the Kd is 13 nM.

As to `O=C1CCC2(CCN(C(=O)c3ccc4scnc4c3)C2)C(=O)N1` (centres unmarked) [Example 29, 2-(benzo[d]thiazole-5-carbonyl)-2,7-diazaspiro[4.5] decane-6,8-dione], the Kd was less than 1 nM.

As to `O=C1CCC2(CCN(c3ccc([N+](=O)[O-])cn3)C2)C(=O)N1` (centres unmarked) [Example 30, 2-(5-nitropyridin-2-yl)-2,7-diazaspiro [4.5]decane-6,8-dione], the Kd stood at 1 nM.

`COC(=O)c1cccc(N2CCC3(CCC(=O)NC3=O)C2)n1` (centres unmarked) [Example 32, methyl 6-(6,8-dioxo-2,7diazaspiro[4.5]decan-2-yl)picolinate]: the Kd came to 1 nM.

In the case of `CC(=O)N1CCc2c(C(=O)N3CCC4(CCC(=O)NC4=O)C3)cccc21` (centres unmarked) [Example 35, 2-(1-acetylindoline-4-carbonyl)-2,7-diazaspiro[4.5] decane-6,8-dione], the Kd is less than 1 nM.

For the compound `O=C1CCC2(CCN(C(=O)c3ccccc3)C2)C(=O)N1` (centres unmarked) [Example 36, 2-benzoyl-2,7-diazaspiro[4.5] decane-6,8-dione], the Kd is less than 1 nM.

On to `CC(=O)Nc1cccc(C(=O)N2CCC3(CCC(=O)NC3=O)C2)c1` (centres unmarked) [Example 37, N-(3-(6,8-dioxo-2,7-diazaspiro[4.5]decane-2-carbonyl)phenyl)acetamide], for which the Kd turned out to be 6 nM.

With `O=C1CCC2(CCN(C(=O)c3cccc4[nH]ncc34)C2)C(=O)N1` (centres unmarked) [Example 38, 2-(1H-indazole-4-carbonyl)-2,7-diazaspiro[4.5] decane-6,8-dione], the Kd stood at 84 nM.

Regarding `O=C1CCC2(CCN(C(=O)c3cccc4c3CCN4)C2)C(=O)N1` (centres unmarked) [Example 40, 2-(indoline-4-carbonyl)-2,7-diazaspiro[4.5] decane-6,8-dione], the Kd came to 6 nM.

Regarding `O=C1CCC2(CCN(C(=O)c3ccc4c(c3)NCC4)C2)C(=O)N1` (centres unmarked) [Example 41, 2-(indoline-6-carbonyl)-2,7-diazaspiro[4.5] decane-6,8-dione], the Kd came to 75 nM.

Regarding `CC(=O)N1CCc2ccc(C(=O)N3CCC4(CCC(=O)NC4=O)C3)cc21` (centres unmarked) [Example 42, 2-(1-acetylindoline-6-carbonyl)-2,7-diazaspiro[4.5] decane-6,8-dione], the Kd was determined as 8 nM.

Take `O=C1CCC2(CCN(C(=O)c3coc4ccccc34)C2)C(=O)N1` (centres unmarked) [Example 44, 2-(benzofuran-3-carbonyl)-2,7-diazaspiro[4.5] decane-6,8-dione]: the Kd worked out at 9 nM.

Turning to `O=C1CCC2(CCN(C(=O)c3cnn4ccccc34)C2)C(=O)N1` (centres unmarked) [Example 45, 2-(pyrazolo[1,5-a]pyridine-3-carbonyl)-2,7-diazaspiro[4.5] decane-6,8-dione], the Kd is less than 1 nM.

The record behind these values is US11584748B2, “Spirocyclic compounds” (priority 2018, dated 2023).
